1 compound from PMC8955712, “Rapid Mining of Novel α-Glucosidase and Lipase Inhibitors from Streptomyces sp. HO1518 Using UPLC-QTOF-MS/MS” (Marine Drugs, 2022) can be followed below.

Common to all, as to format: biochemical
The target of assay [1] is T1, Porcine pancreatic α-amylase (PPA) (Sus scrofa, UniProt P00690).
T1 construct: purchased Sigma Aldrich Co. (St Louis, MO, USA)
T1 sequence (P00690 16-511): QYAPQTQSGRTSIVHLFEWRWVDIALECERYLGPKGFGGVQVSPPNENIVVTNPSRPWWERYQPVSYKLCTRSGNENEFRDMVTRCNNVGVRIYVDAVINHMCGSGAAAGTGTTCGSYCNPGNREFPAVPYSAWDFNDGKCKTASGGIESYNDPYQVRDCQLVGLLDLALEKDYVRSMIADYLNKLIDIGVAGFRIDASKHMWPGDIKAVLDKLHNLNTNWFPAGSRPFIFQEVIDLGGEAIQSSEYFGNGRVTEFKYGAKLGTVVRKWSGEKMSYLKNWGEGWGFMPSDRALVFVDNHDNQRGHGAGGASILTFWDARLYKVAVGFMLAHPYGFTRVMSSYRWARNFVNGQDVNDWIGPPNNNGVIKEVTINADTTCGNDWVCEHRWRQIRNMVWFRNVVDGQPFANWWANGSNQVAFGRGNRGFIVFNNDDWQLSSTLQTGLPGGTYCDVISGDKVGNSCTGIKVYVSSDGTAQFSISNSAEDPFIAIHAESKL
In words: PPA inhibition assay. Conditions: mean ± SD; acarbose positive control; read-out: IC50 Values Against PPA. The text has this: (§1) The HPLC-grade methanol and acetonitrile were purchased from CINC High Purity Solvents (Shanghai) Co., Ltd. (Shanghai, China). The other solvents were of analytical grade (Sinopharm Chemical Reagent Co., Ltd., Beijing, China). Porcine pancreatic α-amylase (PPA) and PL were purchased from Sigma Aldrich Co. (St Louis, MO, USA). […] Standards 1–9 were previously isolated from Streptomyces sp. HO1518 by our group.

Assay [2] addresses T2, pancreatic lipase (PL) (Sus scrofa, UniProt P00591).
T2 construct: purchased Sigma Aldrich Co. (St Louis, MO, USA)
T2 sequence (P00591 1-450): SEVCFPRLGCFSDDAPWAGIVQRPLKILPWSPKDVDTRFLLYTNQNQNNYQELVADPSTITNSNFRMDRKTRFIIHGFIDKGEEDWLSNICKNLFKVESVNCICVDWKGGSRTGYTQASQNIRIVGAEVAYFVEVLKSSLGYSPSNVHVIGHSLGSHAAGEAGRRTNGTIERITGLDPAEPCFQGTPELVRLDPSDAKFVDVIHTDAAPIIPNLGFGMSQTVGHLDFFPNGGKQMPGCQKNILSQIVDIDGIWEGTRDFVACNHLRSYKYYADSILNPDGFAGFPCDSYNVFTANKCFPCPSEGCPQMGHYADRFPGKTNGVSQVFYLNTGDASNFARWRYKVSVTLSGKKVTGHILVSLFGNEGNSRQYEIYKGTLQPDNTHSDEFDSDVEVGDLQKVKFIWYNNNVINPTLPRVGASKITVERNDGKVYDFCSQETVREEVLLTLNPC
The experiment in a line: PL (lipase) inhibition assay. Conditions: mean ± SD; orlistat positive control; read-out: IC50 Values Against PL.
Description: as §1

Assay [3] deals with sucrase. In words: Sucrase inhibition assay. Conditions: mean ± SD; acarbose positive control; read-out: IC50 Values Against Sucrase. An excerpt: The HPLC-grade methanol and acetonitrile were purchased from CINC High Purity Solvents (Shanghai) Co., Ltd. (Shanghai, China). The other solvents were of analytical grade (Sinopharm Chemical Reagent Co., Ltd., Beijing, China). Porcine pancreatic α-amylase (PPA) and PL were purchased from Sigma Aldrich Co. (St Louis, MO, USA). Sucrase and acarbose were obtained from Shanghai yuanye Bio-Technology Co., Ltd. (Shanghai, China). Orlistat was bought from Shanghai xushuo Bio-Technology Co., Ltd. (Shanghai, China). Standards 1–9 were previously isolated from Streptomyces sp. HO1518 by our group.
The sucrase inhibition assay of compounds 9–20 was evaluated according to the previously reported method.

Molecules are shown by their SMILES.

Take `CC(C)CC(=O)OC[C@H]1O[C@H](O[C@H]2[C@H](O)[C@@H](O)[C@@H](O[C@H]3[C@H](O)[C@@H](O)[C@@H](O[C@H]4[C@H](O)[C@@H](O)C(O)O[C@@H]4CO)O[C@@H]3CO)O[C@@H]2CO)[C@H](O)[C@@H](O)[C@@H]1O[C@H]1O[C@H](C)[C@@H](N[C@H]2C=C(CO)[C@@H](O[C@H]3O[C@H](CO)[C@@H](O[C@H]4O[C@H](C)[C@@H](N[C@H]5C=C(CO)[C@@H](O)[C@H](O)[C@H]5O)[C@H](O)[C@H]4O)[C@H](O)[C@H]3O)[C@H](O)[C@H]2O)[C@H](O)[C@H]1O` (stereo partly drawn) [Compound 20, isoVa-Aca II03]: the IC50 – broadly, the point on the concentration scale where inhibition reaches its midpoint – in assay [1] is 80 ± 3 nM; in assay [2], 1430 ± 80 nM; in assay [3] it was 9930 ± 500 nM.
